What was measured:
[1] = tested on: neutrophils; test: Ratio of number of neutrophils to total number of cells in BAL fluid (Diff-Qick staining); assay type: in vivo, mouse
Protocol: (§1) BALB/c male mice (7-week-old, 20 g to 25 g, Orient Bio) were divided into groups of 6 mice, and as assigned to 6 mice in each group, and Alum was diluted in components of air pollutants, i.e., 10 mg/ml of coal combustible materials, 10 mg/ml of fly ash, and 5 mg/ml of diesel exhaust particle (DEP) to have a final concentration of 1% so that a final concentration of each component was 1.5 mg/ml for coal combustible material/fly ash and 5 mg/ml for DEP in a mixture. Then, to all groups except for a normal group, the mixture was directly injected into the airway and nose of the experimental animals by 50 pl each on the 4th, 7th and 10th says of the experiment.
(§2) For a positive control group treated with dexamethasone (Sigma D2915), administed at 3 mg/kg BW of the mouse model, the Lactobacillus plantarum KC3 strain (KC3) was diluted at a concentration of 1×10^9CFU/cell (about 2 mg/kg BW), the Leonurus japonicus extract was diluted in distilled water at a dose of 100 mg/kg of BW, and then orally administered at a dose of 300 pl every day (for 11 days). […]

[2] = tested on: total number of cells in BAL fluid; test: Total number of cells in BAL fluid, mouse model having respiratory damage caused by air pollutants; assay type: in vivo
Protocol: as §1, §2

[3] = tested on: CXCL-1; test: Expression level of inflammation factor in BAL fluid (ELISA); assay type: in vivo, mouse
Protocol: as §1
(§3) For a positive control group treated with dexamethasone (Sigma D2915), administed at 3 mg/kg BW of the mouse model, the Lactobacillus plantarum KC3 strain (KC3) was diluted at a concentration of 1×10^9CFU/cell (about 2 mg/kg BW), the Leonurus japonicus extract was diluted in distilled water at a dose of 100 mg/kg of BW, and then orally administered at a dose of 300 pl every day (for 11 days). For a mixed group including the KC3 strain and the Leonurus japonicus extract, the solution was mixed and diluted at a ratio of 1:1 by the dry weight as in Examples above, and then orally administered at a dose of 300 pl every day (for 11 days) (the cell amount in the KC3 included in the mixture was 0.5×10^9 CFU/cell, and the dose of the Leonurus japonicus extract was set at 50 mg/kg BW). The oral administration was performed at a dose of 300 μl per mouse, and an autopsy was performed on the 12th day after the start of the experiment to recover the BAL solution.
(§4) An experiment was carried out to confirm whether the expression level of inflammation factors in the BAL fluid can be lowered, when treated with the Lactobacillus plantarum KC3 strain, the Leonurus japonicus extract, or the mixture thereof.
(§5) The experiment was carried out in the same manner as in Experimental Example 1-3, except that the number of cells in BAL fluid was measured. Instead of measuring the number of cells, ELISA was performed to measure the expression level of respiratory inflammation factors, such as IL-17A, TNF-α, and CXCL-1, expressed in BAL fluid. In detail, IL-17A antibodies (M1700, R&D Systems, Minneapolis, USA), TNF-α antibodies (MTA00B, R&D Systems, Minneapolis, USA), and CXCL-1 antibodies (MKCOOB, R&D Systems, Minneapolis, USA) were diluted with a buffer solution, coated microwells, and then cultured at 4° C. for 16 hours. Each well was washed with a buffer solution three times, and 10-fold diluted serum was dispensed at 100 μl per well. After being left at room temperature for 1 hour, the wells were washed twice. Then, 100 μl of Avidin-HRP-conjugated antibodies (DY007, R&D Systems, Minneapolis, USA) was treated thereon, and the wells were left again at room temperature for 1 hour, followed by washing again.
(§6) Tetramethylbenzidine (TMB) base solution (DY007, R&D Systems, Minneapolis, USA) was dispensed at 100 μl per well, and the well plate was left in the dark for 30 minutes. After 50 μl of a stopping solution (DY007, R&D Systems, Minneapolis, USA) was treated thereon, absorbance of the cells was measured at 450 nm.

[4] = tested on: TNF-α; test: as above; assay type: in vivo, mouse
Protocol: as §1, §3, §4, §5, §6

[5] = tested on: IL-17A; test: as above; assay type: in vivo, mouse
Protocol: as §1, §3, §4, §5, §6

[6] = tested on: symmetric dimethylarginine (SDMA); test: Measurement of SDMA as COPD biomarker in blood (ELISA); assay type: in vivo, mouse
Protocol: as §1, §2
After being left at room temperature for 1 hour, the wells were washed twice. […] After 50 μl of a stopping solution (DY007, R&D Systems, Minneapolis, USA) was treated thereon, absorbance of the cells was measured at 450 nm. […]

[7] = BALB/c mice, air pollutant-induced, oral daily 11 days, BAL day 12, dexamethasone 3 mg/kg, KC3 1×10^9 CFU, Leo 100 mg/kg, mixture 0.5×10^9 CFU + 50 mg/kg
[8] = BALB/c mice, air pollutant-induced, oral daily 11 days, dexamethasone 3 mg/kg, KC3 1×10^9 CFU, Leo 100 mg/kg, mixture 0.5×10^9 CFU + 50 mg/kg

With `C[C@@H]1C[C@H]2[C@@H]3CCC4=CC(=O)C=C[C@]4(C)[C@@]3(F)[C@@H](O)C[C@]2(C)[C@@]1(O)C(=O)CO` [Positive control group, dexamethasone] the “Ratio of number of neutrophils to total number of BAL cells (400X)” value [1, 7] was 35.5 ± 6.1, the “Inhibition rate (based on induced group), neutrophil ratio” value ([1]; same dosing, based on induced group) was 50% and the “Total number of BAL cells (×10^4 cells/ml)” value [2, 7] was 71.2 ± 8.3 ×10^4 cells/ml. The “Inhibition rate (based on induced group), total BAL cells” value ([2]; same dosing as total BAL cells, based on induced group) was 54%, the “CXCL-1 Concentration” value [3, 8] was 122 ± 12.4 pg/mL and the “CXCL-1 inhibition rate (%) based on induced group” value ([3]; same dosing) was “(39%)”. The “TNF-α Concentration” value [4, 8] was 64.5 ± 7.7 pg/mL, the “TNF-α inhibition rate (%) based on induced group” value ([4]; same dosing) was “(46%)” and the “IL-17A Concentration” value [5, 8] was 19.7 ± 6.3 pg/mL. The “IL-17A inhibition rate (%) based on induced group” value ([5]; same dosing) was “(41%)”, the “SDMA level (μg/mL) in serum” value [6, 8] was 10.1 ± 1.9 µg/mL and the “Inhibition rate (based on induced group), SDMA” value ([6]; serum, same dosing) was 41%.
